{"source": "ChEMBL document CHEMBL5352396", "about": "“Synthesis and biological evaluation of novel FiVe1 derivatives as potent and selective agents for the treatment of mesenchymal cancers” (Eur J Med Chem, 2022)", "key": {"[1]": {"assay": "AUC (0 to last) in mouse at 10 mg/kg, po by LC-MS/MS analysis", "format": "ADME, organism-based", "set-up": "dose 10 mg/kg, route po", "settings": "in vivo"}, "[2]": {"assay": "AUC (0 to last) in mouse at 1 mg/kg, ip by LC-MS/MS analysis", "format": "ADME, organism-based", "set-up": "dose 1 mg/kg, route ip", "settings": "in vivo"}, "[3]": {"assay": "AUC (0 to infinity) in mouse at 10 mg/kg, po by LC-MS/MS analysis", "format": "ADME, organism-based", "set-up": "dose 10 mg/kg, route po", "settings": "in vivo"}, "[4]": {"assay": "AUC (0 to infinity) in mouse at 1 mg/kg, ip by LC-MS/MS analysis", "format": "ADME, organism-based", "set-up": "dose 1 mg/kg, route ip", "settings": "in vivo"}, "[5]": {"assay": "Half life in mouse at 10 mg/kg, po by LC-MS/MS analysis", "format": "ADME, organism-based", "settings": "in vivo"}, "[6]": {"assay": "Half life in mouse at 1 mg/kg, ip by LC-MS/MS analysis", "format": "ADME, organism-based", "settings": "in vivo"}, "[7]": {"assay": "Tmax in mouse at 10 mg/kg, po by LC-MS/MS analysis", "format": "ADME, organism-based", "settings": "in vivo"}, "[8]": {"assay": "Tmax in mouse at 1 mg/kg, ip by LC-MS/MS analysis", "format": "ADME, organism-based", "settings": "in vivo"}, "[9]": {"assay": "Tlast in mouse at 10 mg/kg, po by LC-MS/MS analysis", "format": "ADME, organism-based", "settings": "in vivo"}, "[10]": {"assay": "Tlast in mouse at 1 mg/kg, ip by LC-MS/MS analysis", "format": "ADME, organism-based", "settings": "in vivo"}, "[11]": {"assay": "Cmax in mouse at 1 mg/kg, ip by LC-MS/MS analysis", "format": "ADME, organism-based", "set-up": "dose 1 mg/kg, route ip", "settings": "in vivo"}, "[12]": {"assay": "Cmax in mouse at 10 mg/kg, po by LC-MS/MS analysis", "format": "ADME, organism-based", "set-up": "dose 10 mg/kg, route po", "settings": "in vivo"}, "Vimentin (Homo sapiens) [13]": {"biological_target": "Vimentin (Homo sapiens) (UniProt P08670)", "sequence (P08670 whole entry)": "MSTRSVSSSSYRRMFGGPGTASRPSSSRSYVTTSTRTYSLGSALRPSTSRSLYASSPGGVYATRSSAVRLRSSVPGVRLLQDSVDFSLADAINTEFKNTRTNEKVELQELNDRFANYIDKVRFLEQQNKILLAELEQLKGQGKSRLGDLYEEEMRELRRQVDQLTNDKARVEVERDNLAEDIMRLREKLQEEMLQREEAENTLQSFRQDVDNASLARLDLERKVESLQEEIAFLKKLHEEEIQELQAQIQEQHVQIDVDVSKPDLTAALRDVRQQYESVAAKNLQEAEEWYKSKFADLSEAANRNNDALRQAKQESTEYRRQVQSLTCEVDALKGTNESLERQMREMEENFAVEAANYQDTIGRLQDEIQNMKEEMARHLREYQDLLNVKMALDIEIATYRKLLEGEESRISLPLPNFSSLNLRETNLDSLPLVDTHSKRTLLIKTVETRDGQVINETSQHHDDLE", "assay": "Induction of Vimentin phosphorylation in human HT-1080 cells at 100 nM incubated for 24 hrs by Western blot analysis", "format": "cell-based"}, "Vimentin (Homo sapiens) [14]": {"biological_target": "Vimentin (Homo sapiens) (UniProt P08670)", "assay": "Induction of Vimentin phosphorylation in human RD cells at 100 nM incubated for 24 hrs by Western blot analysis", "format": "cell-based"}, "Vimentin (Homo sapiens) [15]": {"biological_target": "Vimentin (Homo sapiens) (UniProt P08670)", "assay": "Induction of Vimentin phosphorylation in human GCT cells at 100 nM incubated for 24 hrs by Western blot analysis", "format": "cell-based"}, "[16]": {"assay": "Oral bioavailability in mouse at 10 mg/kg by LC-MS/MS analysis", "format": "ADME, organism-based", "settings": "in vivo"}, "[17]": {"assay": "Metabolic stability in CD-1 mouse liver microsomes assessed as half life at 100 uM measured upto 60 mins in presence of NADPH by LC-MS/MS analysis", "format": "ADME, Microsome", "settings": "mouse, microsomes, 1 h, 100 µM"}, "[18]": {"assay": "Metabolic stability in CD-1 mouse liver microsomes assessed as intrinsic clearance at 100 uM measured upto 60 mins in presence of NADPH by LC-MS/MS analysis", "format": "ADME, Microsome", "settings": "mouse, microsomes, 1 h, 100 µM"}, "[19]": {"assay": "Metabolic stability in CD-1 mouse liver microsomes assessed as parent compound remaining at 100 uM measured after 60 mins in presence of NADPH by LC-MS/MS analysis", "format": "ADME, Microsome", "settings": "read-out: Stability"}, "HT-1080": {"test_system": "HT-1080", "assay": "cells", "settings": "Homo sapiens, HT-1080, 72 h"}, "RD": {"test_system": "RD", "assay": "cells", "settings": "Homo sapiens, 72 h"}, "GCT": {"test_system": "GCT", "assay": "cells", "settings": "Homo sapiens, 72 h"}, "MCF7": {"test_system": "MCF7", "assay": "cells", "settings": "Homo sapiens, MCF7, 72 h"}, "[20]": {"assay": "AUC (0 to last) in mouse at 25 mg/kg, po by LC-MS/MS analysis", "format": "ADME, organism-based", "set-up": "dose 25 mg/kg, route po", "settings": "in vivo"}, "[21]": {"assay": "AUC (0 to infinity) in mouse at 25 mg/kg, po by LC-MS/MS analysis", "format": "ADME, organism-based", "set-up": "dose 25 mg/kg, route po", "settings": "in vivo"}, "[22]": {"assay": "Half life in mouse at 25 mg/kg, po by LC-MS/MS analysis", "format": "ADME, organism-based", "settings": "in vivo"}, "[23]": {"assay": "Tmax in mouse at 25 mg/kg, po by LC-MS/MS analysis", "format": "ADME, organism-based", "settings": "in vivo"}, "[24]": {"assay": "Cmax in mouse at 25 mg/kg, po by LC-MS/MS analysis", "format": "ADME, organism-based", "set-up": "dose 25 mg/kg, route po", "settings": "in vivo"}, "[25]": {"assay": "Kinetic solubility of the compound in DPBS buffer at pH 7.4 incubated for 16 hrs under shaking condition by HPLC analysis", "format": "physicochemical", "settings": "read-out: Kinetic_solubility"}, "Vimentin (Homo sapiens) [26]": {"biological_target": "Vimentin (Homo sapiens) (UniProt P08670)", "assay": "Induction of Vimentin phosphorylation in human HT-1080 cells at 1 uM incubated for 24 hrs by Western blot analysis", "format": "cell-based", "settings": "filed as activator"}, "Vimentin (Homo sapiens) [27]": {"biological_target": "Vimentin (Homo sapiens) (UniProt P08670)", "assay": "Induction of Vimentin phosphorylation in human RD cells at 1 uM incubated for 24 hrs by Western blot analysis", "format": "cell-based", "settings": "filed as activator"}, "Vimentin (Homo sapiens) [28]": {"biological_target": "Vimentin (Homo sapiens) (UniProt P08670)", "assay": "Induction of Vimentin phosphorylation in human GCT cells at 1 uM incubated for 24 hrs by Western blot analysis", "format": "cell-based", "settings": "filed as activator"}, "[29]": {"assay": "Drug metabolism in mouse hepatocytes assessed as dealkylation by measuring M1 metabolite formation", "format": "ADME, cell-based, Hepatocyte"}, "[30]": {"assay": "Drug metabolism in mouse hepatocytes assessed as dealkylation and oxygenation by measuring M2 metabolite formation", "format": "ADME, cell-based, Hepatocyte"}, "[31]": {"assay": "Drug metabolism in mouse hepatocytes assessed as dealkylation by measuring M3 metabolite formation", "format": "ADME, cell-based, Hepatocyte"}, "[32]": {"assay": "Drug metabolism in mouse hepatocytes assessed as dealkylation by measuring M4 metabolite formation", "format": "ADME, cell-based, Hepatocyte"}, "[33]": {"assay": "Drug metabolism in mouse hepatocytes assessed as oxygenation by measuring M5 metabolite formation", "format": "ADME, cell-based, Hepatocyte"}, "[34]": {"assay": "Drug metabolism in mouse hepatocytes assessed as oxygenation by measuring M6 metabolite formation", "format": "ADME, cell-based, Hepatocyte"}, "[35]": {"assay": "Drug metabolism in mouse hepatocytes assessed as oxygenation by measuring M7 metabolite formation", "format": "ADME, cell-based, Hepatocyte"}}, "note": "pIC50: −log10 of the molar value. Active and inactive are the calls of the source. The calls are words filed in the database; no cut-off is given here."}
{"smiles": "COc1cc(Cl)cc(N2CCN(c3cnnc4c(Cl)cccc34)CC2)c1", "values": [{"measurement": "AUC(0-t)", "setting": "[1]", "value": 371, "unit": "ng·h/mL"}, {"measurement": "AUC(0-t)", "setting": "[2]", "value": 208, "unit": "ng·h/mL"}, {"measurement": "AUC(0-inf)", "setting": "[3]", "value": 534, "unit": "ng·h/mL"}, {"measurement": "AUC(0-inf)", "setting": "[4]", "value": 211, "unit": "ng·h/mL"}, {"measurement": "half-life", "setting": "[5]", "value": 281, "unit": "min"}, {"measurement": "half-life", "setting": "[6]", "value": 35.4, "unit": "min"}, {"measurement": "Tmax", "setting": "[7]", "value": 40.2, "unit": "min"}, {"measurement": "Tmax", "setting": "[8]", "value": 15, "unit": "min"}, {"measurement": "Tlast", "setting": "[9]", "value": 8, "unit": "h"}, {"measurement": "Tlast", "setting": "[10]", "value": 18, "unit": "h"}, {"measurement": "Cmax", "setting": "[11]", "value": 197, "unit": "ng/mL"}, {"measurement": "Cmax", "setting": "[12]", "value": 155, "unit": "ng/mL"}, {"measurement": "Activity", "setting": "Vimentin (Homo sapiens) [13]; filed as activator", "value": "Active"}, {"measurement": "Activity", "setting": "Vimentin (Homo sapiens) [14]; filed as activator", "value": "Active"}, {"measurement": "Activity", "setting": "Vimentin (Homo sapiens) [15]; filed as activator", "value": "Active"}, {"measurement": "F", "setting": "[16]", "value": 25, "unit": "%"}, {"measurement": "t1/2", "setting": "[17]", "value": 1.7, "unit": "min"}, {"measurement": "microsomal intrinsic clearance", "setting": "[18]", "value": 805.3, "unit": "µL/min/mg"}, {"measurement": "remaining at 1 h, 100 µM", "setting": "[19]", "value": 0, "unit": "%"}, {"measurement": "pIC50", "setting": "HT-1080", "value": 7.36}, {"measurement": "pIC50", "setting": "RD", "value": 7.21}, {"measurement": "pIC50", "setting": "GCT", "value": 7.31}, {"measurement": "pIC50", "setting": "MCF7", "value": 4.95}]}
{"smiles": "Clc1cccc(N2CCN(c3cnnc4c(Cl)cccc34)CC2)c1", "values": [{"measurement": "AUC(0-t)", "setting": "[20]", "value": 310, "unit": "ng·h/mL"}, {"measurement": "AUC(0-inf)", "setting": "[21]", "value": 339, "unit": "ng·h/mL"}, {"measurement": "half-life", "setting": "[22]", "value": 274, "unit": "min"}, {"measurement": "Tmax", "setting": "[23]", "value": 30, "unit": "min"}, {"measurement": "Cmax", "setting": "[24]", "value": 110, "unit": "ng/mL"}, {"measurement": "solubility kinetic at 16 h", "setting": "[25]", "value": "< 1", "unit": "µM"}, {"measurement": "Activity", "setting": "Vimentin (Homo sapiens) [26]", "value": "Active"}, {"measurement": "Activity", "setting": "Vimentin (Homo sapiens) [27]", "value": "Active"}, {"measurement": "Activity", "setting": "Vimentin (Homo sapiens) [28]", "value": "Active"}, {"measurement": "Activity", "setting": "Vimentin (Homo sapiens) [13]", "value": "inactive"}, {"measurement": "Activity", "setting": "Vimentin (Homo sapiens) [14]", "value": "inactive"}, {"measurement": "Activity", "setting": "Vimentin (Homo sapiens) [15]", "value": "inactive"}, {"measurement": "t1/2", "setting": "[17]", "value": 11.9, "unit": "min"}, {"measurement": "microsomal intrinsic clearance", "setting": "[18]", "value": 116.1, "unit": "µL/min/mg"}, {"measurement": "remaining at 1 h, 100 µM", "setting": "[19]", "value": 3.2, "unit": "%"}, {"measurement": "Drug metabolism", "setting": "[29]", "value": "Metabolite_Detected"}, {"measurement": "Drug metabolism", "setting": "[30]", "value": "Metabolite_Detected"}, {"measurement": "Drug metabolism", "setting": "[31]", "value": "Metabolite_Detected"}, {"measurement": "Drug metabolism", "setting": "[32]", "value": "Metabolite_Detected"}, {"measurement": "Drug metabolism", "setting": "[33]", "value": "Metabolite_Detected"}, {"measurement": "Drug metabolism", "setting": "[34]", "value": "Metabolite_Detected"}, {"measurement": "Drug metabolism", "setting": "[35]", "value": "Metabolite_Detected"}, {"measurement": "pIC50", "setting": "HT-1080", "value": 5.81}, {"measurement": "pIC50", "setting": "RD", "value": 5.51}, {"measurement": "pIC50", "setting": "GCT", "value": 5.77}, {"measurement": "pIC50", "setting": "MCF7", "value": "< 4.70"}]}
